Measurements as given in US20140135310A1, “SULPHONAMIDE DERIVATIVES OF ALICYCLIC AMINES FOR THE TREATMENT OF CENTRAL NERVOUS SYSTEM DISEASES” (Adamed Sp. z o.o., priority 2011, published 2014).

What was measured:
[1] = target: dopaminergic receptors D2 (Homo sapiens, UniProt P14416); assay: Radioligand binding assay, dopaminergic D2 receptors; conditions: for Ki: read-out: Inhibition constants Ki for D2 receptors, D2
Procedure, shortened: (§1)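 Scintillation read-out. Specific = total − nonspecific (excess cold ligand). Data as % of control specific binding / % inhibition; IC50 by Hill fit; Ki = IC50/(1+L/KD), KD from Scatchard plot.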

receptors D4.4 = target: T1, receptors D4.4 (Homo sapiens, UniProt P21917); assay: Radioligand binding assay, dopaminergic D4 (D4.4) receptors; conditions: test compound 1×10^−6 M
T1 sequence (P21917 1-419): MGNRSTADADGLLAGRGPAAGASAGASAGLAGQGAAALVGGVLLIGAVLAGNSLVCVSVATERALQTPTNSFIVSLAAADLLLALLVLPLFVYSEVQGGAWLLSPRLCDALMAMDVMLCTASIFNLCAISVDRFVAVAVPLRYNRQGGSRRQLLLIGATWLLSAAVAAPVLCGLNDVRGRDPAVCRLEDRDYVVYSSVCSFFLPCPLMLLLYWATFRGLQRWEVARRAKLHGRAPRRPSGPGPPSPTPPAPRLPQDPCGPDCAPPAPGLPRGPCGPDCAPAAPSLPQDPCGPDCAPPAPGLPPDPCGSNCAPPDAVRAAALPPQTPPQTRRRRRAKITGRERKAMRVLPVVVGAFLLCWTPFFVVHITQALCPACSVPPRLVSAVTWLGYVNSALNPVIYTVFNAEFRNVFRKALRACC
Procedure, shortened: as §1

5-HT2A receptor = target: T2, 5-HT2A receptor (Homo sapiens, UniProt P28223); assay: Radioligand binding assay, serotoninergic 5-HT2A receptors; conditions: for Ki: read-out: Inhibition constants Ki, 5-HT2A
T2 construct: purchased PerkinElmer
Procedure, shortened: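 Competition curves from scintillation-counted specific binding (total minus binding with excess unlabelled ligand) were Hill-fitted to give IC50, converted to Ki via Cheng-Prusoff using Scatchard-derived Kd.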

5-HT7 receptor = target: T3, 5-HT7 receptor (Homo sapiens, UniProt P34969); assay: Radioligand binding assay, serotoninergic 5-HT7 receptors; conditions: binding assay result in %, Table 5a;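 note: test compound at 1 µM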
T3 construct: purchased PerkinElmer
Procedure, shortened: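 Ki values used the Cheng–Prusoff equation, with KD from Scatchard analysis, applied to IC50 from Hill fits of human 5-HT7 radioligand competition curves. Bound radioligand was counted by scintillation, and excess unlabelled ligand set the non-specific binding.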

α2C adrenergic receptors = target: T4, α2C adrenergic receptors (Homo sapiens, UniProt P18825); assay: Radioligand binding assay, adrenergic α2C receptors; conditions: test compound 1×10^−6 M
T4 construct: expressed in transfected cells; host or cells: CHO cells
T4 sequence (P18825 1-462): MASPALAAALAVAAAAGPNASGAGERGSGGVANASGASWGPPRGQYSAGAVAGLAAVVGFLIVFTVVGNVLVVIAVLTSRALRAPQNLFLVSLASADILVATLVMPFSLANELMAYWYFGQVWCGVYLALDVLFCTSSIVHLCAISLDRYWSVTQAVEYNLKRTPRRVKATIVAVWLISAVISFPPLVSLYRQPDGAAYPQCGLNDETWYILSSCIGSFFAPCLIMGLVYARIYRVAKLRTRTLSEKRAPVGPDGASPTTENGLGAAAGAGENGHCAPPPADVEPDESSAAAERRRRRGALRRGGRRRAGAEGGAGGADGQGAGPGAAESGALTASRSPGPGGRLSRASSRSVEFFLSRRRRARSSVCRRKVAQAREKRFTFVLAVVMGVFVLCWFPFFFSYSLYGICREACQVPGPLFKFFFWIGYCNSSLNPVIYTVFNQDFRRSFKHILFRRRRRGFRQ
Procedure, shortened: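 Competitive radioligand binding at human α2C receptors, with scintillation counting. Nonspecific binding defined with excess unlabelled ligand; results given as % inhibition of control specific binding. IC50 from Hill-equation fits of competition curves; Ki via Cheng-Prusoff using radioligand concentration and Scatchard-derived KD.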

[2] = target: T5, serotonin transporter (SERT) (Homo sapiens, UniProt P31645); assay: Radioligand binding assay, serotonin transporter (SERT); conditions: for Ki: read-out: Inhibition constants Ki for SERT, SERT
T5 construct: expressed in transfected cells; host or cells: CHO cells
Procedure, shortened: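 Values are derived from competition curves fitted by the Hill equation to give IC50, then converted to Ki by Cheng-Prusoff with radioligand Kd from Scatchard analysis. Specific binding equals total minus non-specific (excess cold ligand), counted by scintillation, and is also expressed as percent inhibition of control.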

[3] = target: T6, H1 histaminergic receptors (Homo sapiens, UniProt P35367); assay: Radioligand binding assay, histaminergic H1 receptors; conditions: human recombinant (HEK-293 cells), [3H]pyrilamine 1 nM
T6 construct: expressed in transfected cells; host or cells: HEK-293 cells
Procedure, shortened: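 Competition binding at human H1 receptors; specific binding taken as total minus non-specific binding in excess unlabelled ligand, scintillation read-out. IC50 from Hill-equation fit of competition curves; Ki by Cheng-Prusoff using radioligand concentration and Kd (from Scatchard plot).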

σ receptors = assay: Radioligand binding assay, σ receptors; conditions: rat cerebral cortex, [3H]DTG 8 nM
Procedure, shortened: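 Values derive from radioligand displacement, with non-specific binding defined by excess cold ligand and detection by scintillation. Hill-fit IC50s were converted to Ki via Cheng-Prusoff using Scatchard-derived Kd; percent inhibition of control specific binding also reported.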

[4] = binding assay, test compound 1×10^−6 M
[5] = binding assay result in %, Table 5a

Sequence of dopaminergic receptors D2 (P14416 whole entry): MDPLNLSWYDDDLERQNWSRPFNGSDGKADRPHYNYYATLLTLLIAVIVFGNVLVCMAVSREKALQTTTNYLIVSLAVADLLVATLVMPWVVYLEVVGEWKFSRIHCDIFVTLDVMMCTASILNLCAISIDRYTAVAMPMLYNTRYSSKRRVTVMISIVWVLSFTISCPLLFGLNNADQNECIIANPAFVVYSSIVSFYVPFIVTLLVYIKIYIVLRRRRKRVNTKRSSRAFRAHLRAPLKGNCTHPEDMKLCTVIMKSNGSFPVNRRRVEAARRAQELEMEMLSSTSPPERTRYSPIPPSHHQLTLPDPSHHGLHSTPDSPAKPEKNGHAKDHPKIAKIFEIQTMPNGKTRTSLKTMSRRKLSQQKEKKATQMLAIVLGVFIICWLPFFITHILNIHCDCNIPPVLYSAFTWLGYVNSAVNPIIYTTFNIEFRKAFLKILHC
T6 sequence (P35367 whole entry): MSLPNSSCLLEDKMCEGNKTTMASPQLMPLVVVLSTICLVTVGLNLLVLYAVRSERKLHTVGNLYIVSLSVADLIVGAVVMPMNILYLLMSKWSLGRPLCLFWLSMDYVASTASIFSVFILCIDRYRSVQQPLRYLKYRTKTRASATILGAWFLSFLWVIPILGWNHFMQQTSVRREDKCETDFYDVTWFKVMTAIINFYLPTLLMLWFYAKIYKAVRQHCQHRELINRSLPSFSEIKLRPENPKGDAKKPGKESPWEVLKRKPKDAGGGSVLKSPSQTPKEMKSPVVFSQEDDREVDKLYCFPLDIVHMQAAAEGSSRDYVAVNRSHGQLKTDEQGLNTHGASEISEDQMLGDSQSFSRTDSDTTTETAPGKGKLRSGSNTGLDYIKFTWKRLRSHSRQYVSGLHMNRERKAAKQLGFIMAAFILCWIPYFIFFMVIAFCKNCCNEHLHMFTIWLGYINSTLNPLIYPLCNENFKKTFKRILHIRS
T3 sequence (P34969 whole entry): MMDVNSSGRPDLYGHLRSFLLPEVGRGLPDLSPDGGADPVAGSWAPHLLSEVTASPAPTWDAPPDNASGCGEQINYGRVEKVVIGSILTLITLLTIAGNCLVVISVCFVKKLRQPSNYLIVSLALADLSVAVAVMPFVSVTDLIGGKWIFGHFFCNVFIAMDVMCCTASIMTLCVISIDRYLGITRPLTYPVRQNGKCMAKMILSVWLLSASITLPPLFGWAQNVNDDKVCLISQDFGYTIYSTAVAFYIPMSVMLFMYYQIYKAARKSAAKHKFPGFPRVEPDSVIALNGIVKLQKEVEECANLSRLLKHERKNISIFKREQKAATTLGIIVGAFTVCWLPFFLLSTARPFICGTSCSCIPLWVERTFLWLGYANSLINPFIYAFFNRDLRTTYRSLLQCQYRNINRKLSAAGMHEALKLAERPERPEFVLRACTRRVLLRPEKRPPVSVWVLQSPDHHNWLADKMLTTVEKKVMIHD
T5 sequence (P31645 whole entry): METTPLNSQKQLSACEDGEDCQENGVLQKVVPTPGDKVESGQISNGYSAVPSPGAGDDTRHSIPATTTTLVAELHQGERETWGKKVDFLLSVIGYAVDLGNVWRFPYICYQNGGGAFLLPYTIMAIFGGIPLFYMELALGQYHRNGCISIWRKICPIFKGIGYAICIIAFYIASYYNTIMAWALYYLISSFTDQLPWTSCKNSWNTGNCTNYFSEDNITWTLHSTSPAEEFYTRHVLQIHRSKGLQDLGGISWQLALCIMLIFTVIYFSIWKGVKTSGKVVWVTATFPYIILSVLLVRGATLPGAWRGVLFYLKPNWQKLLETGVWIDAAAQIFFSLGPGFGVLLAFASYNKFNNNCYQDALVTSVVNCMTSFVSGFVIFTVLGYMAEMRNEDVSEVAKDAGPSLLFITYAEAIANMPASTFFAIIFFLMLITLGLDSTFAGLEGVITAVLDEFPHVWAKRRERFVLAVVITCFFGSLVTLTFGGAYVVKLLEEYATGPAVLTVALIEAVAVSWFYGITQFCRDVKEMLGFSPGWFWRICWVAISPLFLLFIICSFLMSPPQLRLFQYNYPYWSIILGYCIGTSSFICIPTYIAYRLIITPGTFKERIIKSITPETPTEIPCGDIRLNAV
T2 sequence (P28223 whole entry): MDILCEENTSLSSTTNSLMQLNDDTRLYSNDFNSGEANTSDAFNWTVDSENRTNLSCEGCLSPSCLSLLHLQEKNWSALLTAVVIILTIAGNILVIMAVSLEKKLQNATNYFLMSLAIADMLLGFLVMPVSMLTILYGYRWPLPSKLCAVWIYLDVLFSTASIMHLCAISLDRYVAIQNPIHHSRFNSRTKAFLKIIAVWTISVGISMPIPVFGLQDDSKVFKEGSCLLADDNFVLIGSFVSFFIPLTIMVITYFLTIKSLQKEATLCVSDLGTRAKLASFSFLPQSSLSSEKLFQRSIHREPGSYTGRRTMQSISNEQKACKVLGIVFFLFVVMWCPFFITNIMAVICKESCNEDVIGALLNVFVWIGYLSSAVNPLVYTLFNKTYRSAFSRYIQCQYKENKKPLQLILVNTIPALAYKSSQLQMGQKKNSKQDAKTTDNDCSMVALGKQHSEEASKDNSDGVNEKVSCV

Row | Compound | inhibition at 1 µM [1, 4] | inhibition at 1 µM (receptors D4.4) | inhibition at 1 µM (5-HT2A receptor; [5]) | inhibition at 1 µM (5-HT7 receptor) | inhibition at 1 µM (α2C adrenergic receptors) | inhibition at 1 µM [2, 4] | inhibition at 1 µM [3] | σ [%] (σ receptors) | Ki [2] | Ki [1] | Ki (5-HT2A receptor) | D2 [%] [1, 4] | D4.4 [%] (receptors D4.4) | 5-HT2A [%] (5-HT2A receptor; [5]) | 5-HT7 [%] (5-HT7 receptor) | α2C [%] (α2C adrenergic receptors) | SERT [%] [2, 4] | H1 [%] [3]
1 | O=S(=O)(NC1CCN(CCCc2noc3cc(F)ccc23)C1)c1cc2ccccc2s1 (stereo not shown) [Compound 25, N-[1-[3-(6-Fluoro-1,2-benzoxazol-3-yl)propyl]pyrrolidin-3-yl]-benzothiophene-2-sulphonamide] | 98% | 84% | 102% | 98% | 90% | 42% | 75% | 70% | – | – | – | – | – | – | – | – | – | –
2 | O=S(=O)(NC1CCN(CCCc2c[nH]c3ccc(F)cc23)C1)c1ccc(Cl)cc1 (stereo not shown) [Compound 77, 4-Chloro-N-[1-[3-(5-fluoro-1H-indol-3-yl)propyl]pyrrolidin-3-yl]-benzenesulphonamide] | 93% | 78% | 100% | 89% | 78% | 104% | 54% | 48% | 0.5 nM | – | – | – | – | – | – | – | – | –
3 | Cc1c(S(=O)(=O)NC2CCN(CCCc3noc4cc(F)ccc34)C2)sc2ccc(F)cc12 (stereo not shown) [Compound 28, 5-Fluoro-N-[1-[3-(6-fluoro-1,2-benzoxazol-3-yl)propyl]pyrrolidin-3-yl]-3-methyl-benzothiophene-2-sulphonamide] | 97% | 75% | 101% | 94% | 93% | 54% | 63% | 70% | – | – | – | – | – | – | – | – | – | –
4 | O=S(=O)(NC1CCN(CCCc2c[nH]c3ccc(F)cc23)C1)c1ccc(F)cc1 (stereo not shown) [Compound 75, 4-Fluoro-N-[1-[3-(5-fluoro-1H-indol-3-yl)propyl]pyrrolidin-3-yl]benzene-sulphonamide] | 91% | 76% | 90% | 90% | 76% | 103% | 57% | 75% | 1.5 nM | – | – | – | – | – | – | – | – | –
5 | O=S(=O)(N[C@H]1CCN(CCCc2noc3cc(F)ccc23)C1)c1cc2ccccc2o1 [Compound 215, N-[(3S)-1-[3-(6-Fluoro-1,2-benzoxazol-3-yl)propyl]pyrrolidin-3-yl]benzo-furan-2-sulphonamide] | 97% | 88% | – | 98% | 66% | 35% | 50% | 81% | – | 3 nM | 1.2 nM | – | – | – | – | – | – | –
6 | O=S(=O)(NCC1CN(CCOc2cccc3c2OCCO3)C1)c1cc2ccccc2o1 [Compound 186, N-[[1-[2-(2,3-Dihydro-1,4-benzodioxin-5-yloxy)ethyl]azetidin-3-yl]methyl]-benzofuran-2-sulphonamide] | 77% | 55% | 87% | 97% | 96% | 39% | 17% | 84% | – | – | – | – | – | – | – | – | – | –
7 | O=S(=O)(N[C@H]1CCN(CCCc2noc3cc(F)ccc23)C1)c1cc2ccc(Cl)cc2s1 [Compound 199, 6-Chloro-N-[(3S)-1-[3-(6-fluoro-1,2-benzoxazol-3-yl)propyl]pyrrolidin-3-yl]benzothiophene-2-sulphonamide] | 96% | 69% | – | 94% | 82% | 39% | 58% | 80% | – | 4.4 nM | 0.7 nM | – | – | – | – | – | – | –
8 | O=S(=O)(NC1CN(CCOc2cccc3c2OCCO3)C1)c1ccc(Cl)cc1 [Compound 92, 4-Chloro-N-[1-[2-(2,3-dihydro-1,4-benzodioxan-8-yloxy)ethyl]azetidin-3-yl]benzene-sulphonamide] | – | – | – | – | – | – | – | 15% | – | – | – | 49% | 35% | 60% | 99% | 76% | 10% | 6%
9 | Cc1cccc(S(=O)(=O)NC2CCN(CCCc3c[nH]c4ccc(F)cc34)C2)c1 (stereo not shown) [Compound 78, N-[1-[3-(5-Fluoro-1H-indol-3-yl)propyl]pyrrolidin-3-yl]-3-methyl-benzenesulphonamide] | 89% | 79% | 95% | 89% | 85% | 101% | 65% | 70% | 1 nM | – | – | – | – | – | – | – | – | –
10 | Cn1ccc2cc(S(=O)(=O)NCC3CCN(CCOc4cccc5c4OCCO5)C3)ccc21 (stereo not shown) [Compound 308, N-[[1-[2-(2,3-Dihydro-1,4-benzodioxin-5-yloxy)ethyl]pyrrolidin-3-yl]methyl]-1-methyl-indole-5-sulphonamide] | 57% | 26% | 91% | 83% | 96% | 95% | 37% | 91% | – | – | – | – | – | – | – | – | – | –
11 | O=S(=O)(NC1CCN(CCCc2c[nH]c3ccc(Cl)cc23)C1)c1cccc(Cl)c1 (stereo not shown) [Compound 84, 3-Chloro-N-[1-[3-(5-chloro-1H-indol-3-yl)propyl]pyrrolidin-3-yl]benzenesulphonamide] | 89% | 94% | 78% | 98% | 105% | 104% | 79% | 59% | 2.6 nM | – | – | – | – | – | – | – | – | –
12 | O=S(=O)(N[C@H]1CCN(CCCc2noc3cc(F)ccc23)C1)c1csc2ccccc12 [Compound 225, N-[(3S)-1-[3-(6-Fluoro-1,2-benzoxazol-3-yl)propyl]pyrrolidin-3-yl]benzothiophene-3-sulphonamide] | 97% | 91% | – | 100% | 80% | 77% | 57% | 96% | – | 9.2 nM | 0.9 nM | – | – | – | – | – | – | –
13 | O=S(=O)(N[C@@H]1CCN(CCCc2noc3cc(F)ccc23)C1)c1cc2ccc(Cl)cc2s1 [Compound 198, 6-Chloro-N-[(3R)-1-[3-(6-fluoro-1,2-benzoxazol-3-yl)propyl]pyrrolidin-3-yl]benzothiophene-2-sulphonamide] | 99% | 48% | – | 93% | 80% | 44% | 81% | 86% | – | 1.8 nM | 0.7 nM | – | – | – | – | – | – | –
